# Tested on: 958667-338-R-J2-PDC tumor spheroids viability
# Assay: Anticancer human tumor 958667-338-R-J2-PDC patient-derived colon adenocarcinoma cell line growth inhibition [PI3K]
# Conditions: spheroids with HUVEC and MSC; for IC50: curve of first compound; for viability, T/C: stronger effect = lower value
# Procedure, shortened: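 Viability of mixed-cell spheroids was determined after exposure to pairwise combinations, one partner being inavolisib, alpelisib, duvelisib or copanlisib. Highest tested concentration matched clinical Cmax where known and 10 microM where not, descending in half-log steps.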
# [1] = second compound 0.0316 µM, first compound 0.0316 µM
# [2] = second compound 0.0316 µM, first compound 0.1 µM
# [3] = second compound 0.0316 µM, first compound 0.316 µM
# [4] = second compound 0.0316 µM, first compound 1 µM
# [5] = second compound 0.1 µM, first compound 0.0316 µM
# [6] = second compound 0.1 µM, first compound 0.1 µM
# [7] = second compound 0.1 µM, first compound 0.316 µM
# [8] = second compound 0.1 µM, first compound 1 µM
# [9] = second compound 0.316 µM, first compound 0.0316 µM
# [10] = second compound 0.316 µM, first compound 0.1 µM
# [11] = second compound 0.316 µM, first compound 0.316 µM
# [12] = second compound 0.316 µM, first compound 1 µM
# [13] = second compound 1 µM, first compound 0.0316 µM
# [14] = second compound 1 µM, first compound 0.1 µM
# [15] = second compound 1 µM, first compound 0.316 µM
# [16] = second compound 1 µM, first compound 1 µM
# 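Also: spheroids exposed to compounds for seven days before readout.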
compound,measurement,setting,value
CCN1CCN(Cc2ccc(Nc3ncc(F)c(-c4cc(F)c5nc(C)n(C(C)C)c5c4)n3)nc2)CC1 + Cc1nc(NC(=O)N2CCCC2C(N)=O)sc1-c1ccnc(C(C)(C)C(F)(F)F)c1,IC50,second compound 0.0316 µM,> 1000 nM
same,IC50,second compound 0.1 µM,> 1000 nM
same,IC50,second compound 0.316 µM,> 1000 nM
same,IC50,second compound 1 µM,684 nM
same,IC50,second compound 3.16 µM,29.4 nM
same,IC50,second compound 10 µM,30.5 nM
same,"viability, T/C","second compound 0.0316 µM, first compound 0.00316 µM",96.6%
same,"viability, T/C","second compound 0.0316 µM, first compound 0.01 µM",108%
same,"viability, T/C",[1],93.5%
same,"viability, T/C",[2],81.5%
same,"viability, T/C",[3],64.7%
same,"viability, T/C",[4],73.9%
same,"viability, T/C","second compound 0.1 µM, first compound 0.00316 µM",97.6%
same,"viability, T/C","second compound 0.1 µM, first compound 0.01 µM",112%
same,"viability, T/C",[5],85%
same,"viability, T/C",[6],77.1%
same,"viability, T/C",[7],86.1%
same,"viability, T/C",[8],70.4%
same,"viability, T/C","second compound 0.316 µM, first compound 0.00316 µM",85.5%
same,"viability, T/C","second compound 0.316 µM, first compound 0.01 µM",86%
same,"viability, T/C",[9],79.7%
same,"viability, T/C",[10],84.6%
same,"viability, T/C",[11],68%
same,"viability, T/C",[12],61.8%
same,"viability, T/C","second compound 1 µM, first compound 0.00316 µM",94.5%
same,"viability, T/C","second compound 1 µM, first compound 0.01 µM",67.4%
same,"viability, T/C",[13],72.8%
same,"viability, T/C",[14],59.7%
same,"viability, T/C",[15],57.4%
same,"viability, T/C",[16],45.5%
same,"viability, T/C","second compound 3.16 µM, first compound 0.00316 µM",66.4%
same,"viability, T/C","second compound 3.16 µM, first compound 0.01 µM",86.1%
same,"viability, T/C","second compound 3.16 µM, first compound 0.0316 µM",48.1%
same,"viability, T/C","second compound 3.16 µM, first compound 0.1 µM",47.1%
same,"viability, T/C","second compound 3.16 µM, first compound 0.316 µM",47.9%
same,"viability, T/C","second compound 3.16 µM, first compound 1 µM",35.8%
same,"viability, T/C","second compound 10 µM, first compound 0.00316 µM",54.2%
same,"viability, T/C","second compound 10 µM, first compound 0.01 µM",60.8%
same,"viability, T/C","second compound 10 µM, first compound 0.0316 µM",44.7%
same,"viability, T/C","second compound 10 µM, first compound 0.1 µM",46.5%
same,"viability, T/C","second compound 10 µM, first compound 0.316 µM",36.5%
same,"viability, T/C","second compound 10 µM, first compound 1 µM",31.3%
CNC(=O)c1ccc(N2C(=S)N(c3ccc(C#N)c(C(F)(F)F)c3)C(=O)C2(C)C)cc1F + CC(Nc1ccc2c(c1)OCCn1cc(N3C(=O)OCC3C(F)F)nc1-2)C(N)=O,IC50,second compound 0.00316 µM,> 10000 nM
same,IC50,second compound 0.01 µM,> 10000 nM
same,IC50,second compound 0.0316 µM,> 10000 nM
same,IC50,second compound 0.1 µM,> 10000 nM
same,IC50,second compound 0.316 µM,> 10000 nM
same,IC50,second compound 1 µM,> 10000 nM
same,"viability, T/C","second compound 0.00316 µM, first compound 0.0316 µM",96.3%
same,"viability, T/C","second compound 0.00316 µM, first compound 0.1 µM",103%
same,"viability, T/C","second compound 0.00316 µM, first compound 0.316 µM",93.4%
same,"viability, T/C","second compound 0.00316 µM, first compound 1 µM",84.3%
same,"viability, T/C","second compound 0.00316 µM, first compound 3.16 µM",97.1%
same,"viability, T/C","second compound 0.00316 µM, first compound 10 µM",102%
same,"viability, T/C","second compound 0.01 µM, first compound 0.0316 µM",115%
same,"viability, T/C","second compound 0.01 µM, first compound 0.1 µM",102%
same,"viability, T/C","second compound 0.01 µM, first compound 0.316 µM",80.6%
same,"viability, T/C","second compound 0.01 µM, first compound 1 µM",97.6%
same,"viability, T/C","second compound 0.01 µM, first compound 3.16 µM",89.9%
same,"viability, T/C","second compound 0.01 µM, first compound 10 µM",95.7%
same,"viability, T/C",[1],104%
same,"viability, T/C",[2],98.1%
same,"viability, T/C",[3],93.6%
same,"viability, T/C",[4],107%
same,"viability, T/C","second compound 0.0316 µM, first compound 3.16 µM",104%
same,"viability, T/C","second compound 0.0316 µM, first compound 10 µM",94.6%
same,"viability, T/C",[5],84.5%
same,"viability, T/C",[6],57.5%
same,"viability, T/C",[7],90%
same,"viability, T/C",[8],79.6%
same,"viability, T/C","second compound 0.1 µM, first compound 3.16 µM",85.1%
same,"viability, T/C","second compound 0.1 µM, first compound 10 µM",83.5%
same,"viability, T/C",[9],75.3%
same,"viability, T/C",[10],73.5%
same,"viability, T/C",[11],73.9%
same,"viability, T/C",[12],72.5%
same,"viability, T/C","second compound 0.316 µM, first compound 3.16 µM",63%
same,"viability, T/C","second compound 0.316 µM, first compound 10 µM",68.4%
same,"viability, T/C",[13],67%
same,"viability, T/C",[14],64.3%
same,"viability, T/C",[15],64.2%
same,"viability, T/C",[16],62%
same,"viability, T/C","second compound 1 µM, first compound 3.16 µM",69.4%
same,"viability, T/C","second compound 1 µM, first compound 10 µM",50.6%

# Reference: PubChem BioAssay AID1963963 (Molecular Pharmacology Branch, DTP, NCI, 2024)
